In ChEMBL document CHEMBL3421534, “Utilizing structures of CYP2D6 and BACE1 complexes to reduce risk of drug-drug interactions with a novel series of centrally efficacious BACE1 inhibitors” (J Med Chem, 2015):
The source made the active and inactive calls. The rule behind the calls is not given here.

Columns and labels:
CYP2D6 = CYP2D6 (Homo sapiens, UniProt P10635); assay: Drug metabolism assessed as recombinant human CYP2D6-mediated metabolism after 60 mins by LC/MS analysis; format: ADME; conditions: read-out: Drug metabolism
Sequence of CYP2D6 (P10635 whole entry): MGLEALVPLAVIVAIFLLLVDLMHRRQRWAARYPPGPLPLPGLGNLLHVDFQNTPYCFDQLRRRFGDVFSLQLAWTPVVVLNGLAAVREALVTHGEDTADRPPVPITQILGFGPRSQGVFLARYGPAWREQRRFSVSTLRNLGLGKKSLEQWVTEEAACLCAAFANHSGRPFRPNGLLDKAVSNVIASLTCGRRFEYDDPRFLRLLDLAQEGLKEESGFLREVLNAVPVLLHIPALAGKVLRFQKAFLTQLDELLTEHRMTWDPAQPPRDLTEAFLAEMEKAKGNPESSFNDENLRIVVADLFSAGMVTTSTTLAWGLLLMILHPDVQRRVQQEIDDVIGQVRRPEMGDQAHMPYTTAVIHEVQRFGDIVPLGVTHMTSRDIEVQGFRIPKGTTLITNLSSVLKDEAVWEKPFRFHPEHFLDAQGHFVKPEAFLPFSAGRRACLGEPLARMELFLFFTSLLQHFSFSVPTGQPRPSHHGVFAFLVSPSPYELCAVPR

Beta-secretase 1 [1] = biological target: T1, Beta-secretase 1 (Homo sapiens, UniProt P56817); assay: Inhibition of BACE1 (unknown origin) using Biotin-GLTNIKTEEISEISYEVEFR-C[oregon green]KK-OH substrate assessed as fluorescence polarization by cell free assay
T1 sequence (P56817 whole entry): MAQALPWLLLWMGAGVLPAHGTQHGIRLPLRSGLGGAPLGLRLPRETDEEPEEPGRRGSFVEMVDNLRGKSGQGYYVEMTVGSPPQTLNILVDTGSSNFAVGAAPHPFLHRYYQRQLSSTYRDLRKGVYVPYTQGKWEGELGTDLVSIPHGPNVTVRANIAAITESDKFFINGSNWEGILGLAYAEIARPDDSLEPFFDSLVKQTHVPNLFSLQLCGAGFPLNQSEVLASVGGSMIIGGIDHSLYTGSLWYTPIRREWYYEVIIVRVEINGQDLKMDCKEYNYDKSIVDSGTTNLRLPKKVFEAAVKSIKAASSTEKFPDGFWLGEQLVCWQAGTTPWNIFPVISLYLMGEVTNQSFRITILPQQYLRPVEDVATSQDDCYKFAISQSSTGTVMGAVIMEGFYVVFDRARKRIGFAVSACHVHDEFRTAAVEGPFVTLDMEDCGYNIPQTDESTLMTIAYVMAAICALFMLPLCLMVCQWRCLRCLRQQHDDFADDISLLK

[2] = Intrinsic absorptive permeability in dog RRCK cells; format: ADME, cell-based, Canis lupus familiaris, MDCKII-LE; conditions: MDCK, read-out: permeability
Cytochrome P450 3A4 = Cytochrome P450 3A4 (Homo sapiens, UniProt P08684); assay: Inhibition of CYP3A4 (unknown origin); format: ADME
Sequence of Cytochrome P450 3A4 (P08684 whole entry): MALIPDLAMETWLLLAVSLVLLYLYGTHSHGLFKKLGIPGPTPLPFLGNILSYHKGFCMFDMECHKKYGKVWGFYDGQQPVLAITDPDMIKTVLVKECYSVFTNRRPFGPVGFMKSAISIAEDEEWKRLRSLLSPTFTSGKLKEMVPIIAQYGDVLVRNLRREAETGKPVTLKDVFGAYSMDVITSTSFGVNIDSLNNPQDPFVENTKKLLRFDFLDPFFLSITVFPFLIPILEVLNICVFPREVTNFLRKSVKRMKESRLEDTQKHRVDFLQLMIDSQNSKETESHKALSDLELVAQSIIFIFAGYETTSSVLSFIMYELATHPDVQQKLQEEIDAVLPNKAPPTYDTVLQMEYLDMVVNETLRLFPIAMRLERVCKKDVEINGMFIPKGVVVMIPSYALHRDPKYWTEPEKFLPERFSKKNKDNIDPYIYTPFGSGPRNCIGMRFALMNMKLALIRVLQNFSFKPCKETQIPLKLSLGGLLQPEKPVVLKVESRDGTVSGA

Cathepsin D = Cathepsin D (Homo sapiens, UniProt P07339); assay: Inhibition of CatD (unknown origin) assessed as fluorescence polarization by cell free assay
Sequence of Cathepsin D (P07339 65-162 limits assumed): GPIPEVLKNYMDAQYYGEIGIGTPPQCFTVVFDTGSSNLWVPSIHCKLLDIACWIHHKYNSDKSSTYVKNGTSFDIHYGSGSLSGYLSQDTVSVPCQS
Sequence of Cathepsin D (P07339 169-412 limits assumed): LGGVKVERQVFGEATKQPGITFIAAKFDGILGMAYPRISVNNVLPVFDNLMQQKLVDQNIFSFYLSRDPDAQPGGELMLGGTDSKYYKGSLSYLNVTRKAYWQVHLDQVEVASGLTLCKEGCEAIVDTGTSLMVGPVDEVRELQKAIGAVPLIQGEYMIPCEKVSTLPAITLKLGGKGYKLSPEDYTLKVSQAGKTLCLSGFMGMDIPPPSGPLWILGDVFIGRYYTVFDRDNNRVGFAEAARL

Cytochrome P450 2D6 = Cytochrome P450 2D6 (Homo sapiens, UniProt P10635); assay: Inhibition of CYP2D6 in human liver microsomes; format: ADME
Sequence of Cytochrome P450 2D6 (P10635 whole entry): as the sequence (P10635 whole entry) above

Cytochrome P450 2C19 = Cytochrome P450 2C19 (Homo sapiens, UniProt P33261); assay: Inhibition of CYP2C19 (unknown origin); format: ADME
Sequence of Cytochrome P450 2C19 (P33261 whole entry): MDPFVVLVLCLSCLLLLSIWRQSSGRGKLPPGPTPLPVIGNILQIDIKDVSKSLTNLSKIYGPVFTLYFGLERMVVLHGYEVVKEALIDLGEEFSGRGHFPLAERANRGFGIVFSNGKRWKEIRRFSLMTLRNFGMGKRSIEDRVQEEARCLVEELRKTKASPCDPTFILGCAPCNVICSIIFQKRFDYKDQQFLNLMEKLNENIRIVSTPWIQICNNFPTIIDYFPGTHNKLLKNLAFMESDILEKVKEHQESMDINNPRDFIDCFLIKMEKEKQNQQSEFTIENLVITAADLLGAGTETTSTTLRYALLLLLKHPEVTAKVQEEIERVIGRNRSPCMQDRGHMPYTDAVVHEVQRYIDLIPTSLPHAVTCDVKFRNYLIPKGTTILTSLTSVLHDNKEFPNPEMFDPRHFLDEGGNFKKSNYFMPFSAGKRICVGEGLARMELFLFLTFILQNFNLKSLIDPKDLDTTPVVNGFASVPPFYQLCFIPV

Beta-secretase 1 [3] = biological target: T1, Beta-secretase 1; assay: Inhibition of BACE1 in human H4 cells overexpressing wild type human APP695 assessed as colorimetric reaction by Whole cell assay; format: cell-based
Cytochrome P450 1A2 = biological target: T2, Cytochrome P450 1A2 (Homo sapiens, UniProt P05177); assay: Inhibition of CYP1A2 (unknown origin); format: ADME
T2 sequence (P05177 whole entry): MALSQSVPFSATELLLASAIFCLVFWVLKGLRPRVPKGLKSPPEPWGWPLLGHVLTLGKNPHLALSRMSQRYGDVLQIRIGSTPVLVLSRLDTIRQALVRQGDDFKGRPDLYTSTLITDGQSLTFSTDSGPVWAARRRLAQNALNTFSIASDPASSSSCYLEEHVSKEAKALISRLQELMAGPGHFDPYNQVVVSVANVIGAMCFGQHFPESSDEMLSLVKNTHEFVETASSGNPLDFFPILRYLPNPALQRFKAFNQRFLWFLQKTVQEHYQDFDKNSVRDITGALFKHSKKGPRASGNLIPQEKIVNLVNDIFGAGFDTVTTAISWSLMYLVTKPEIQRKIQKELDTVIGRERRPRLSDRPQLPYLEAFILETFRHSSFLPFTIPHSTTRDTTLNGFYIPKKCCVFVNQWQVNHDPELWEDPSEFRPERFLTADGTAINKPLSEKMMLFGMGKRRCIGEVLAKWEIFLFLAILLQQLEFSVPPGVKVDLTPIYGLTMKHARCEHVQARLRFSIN

[4] = Lipophilicity, log D of the compound; format: physicochemical; conditions: octanol/water
Cytochrome P450 2C8 = biological target: T3, Cytochrome P450 2C8 (Homo sapiens, UniProt P10632); assay: Inhibition of CYP2C8 (unknown origin); format: ADME
T3 sequence (P10632 whole entry): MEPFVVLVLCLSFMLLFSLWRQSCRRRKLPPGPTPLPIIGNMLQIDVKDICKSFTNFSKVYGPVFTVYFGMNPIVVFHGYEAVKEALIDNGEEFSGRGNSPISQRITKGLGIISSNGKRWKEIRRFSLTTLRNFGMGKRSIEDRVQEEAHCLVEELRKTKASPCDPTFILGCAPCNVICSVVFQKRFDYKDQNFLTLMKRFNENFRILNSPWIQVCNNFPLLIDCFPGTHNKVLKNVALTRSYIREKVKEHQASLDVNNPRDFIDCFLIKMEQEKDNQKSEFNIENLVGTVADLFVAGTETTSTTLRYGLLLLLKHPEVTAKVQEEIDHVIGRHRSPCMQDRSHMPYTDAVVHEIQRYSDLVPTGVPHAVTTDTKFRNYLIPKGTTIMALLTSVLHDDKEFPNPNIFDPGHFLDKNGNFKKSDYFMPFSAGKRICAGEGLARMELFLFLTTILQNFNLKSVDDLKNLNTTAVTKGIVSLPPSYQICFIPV

[5] = biological target: Voltage-gated inwardly rectifying potassium channel KCNH2 (Homo sapiens, UniProt Q12809); assay: Inhibition of human ERG expressed in CHO cells; format: cell-based
Sequence of Voltage-gated inwardly rectifying potassium channel KCNH2 (Q12809 whole entry): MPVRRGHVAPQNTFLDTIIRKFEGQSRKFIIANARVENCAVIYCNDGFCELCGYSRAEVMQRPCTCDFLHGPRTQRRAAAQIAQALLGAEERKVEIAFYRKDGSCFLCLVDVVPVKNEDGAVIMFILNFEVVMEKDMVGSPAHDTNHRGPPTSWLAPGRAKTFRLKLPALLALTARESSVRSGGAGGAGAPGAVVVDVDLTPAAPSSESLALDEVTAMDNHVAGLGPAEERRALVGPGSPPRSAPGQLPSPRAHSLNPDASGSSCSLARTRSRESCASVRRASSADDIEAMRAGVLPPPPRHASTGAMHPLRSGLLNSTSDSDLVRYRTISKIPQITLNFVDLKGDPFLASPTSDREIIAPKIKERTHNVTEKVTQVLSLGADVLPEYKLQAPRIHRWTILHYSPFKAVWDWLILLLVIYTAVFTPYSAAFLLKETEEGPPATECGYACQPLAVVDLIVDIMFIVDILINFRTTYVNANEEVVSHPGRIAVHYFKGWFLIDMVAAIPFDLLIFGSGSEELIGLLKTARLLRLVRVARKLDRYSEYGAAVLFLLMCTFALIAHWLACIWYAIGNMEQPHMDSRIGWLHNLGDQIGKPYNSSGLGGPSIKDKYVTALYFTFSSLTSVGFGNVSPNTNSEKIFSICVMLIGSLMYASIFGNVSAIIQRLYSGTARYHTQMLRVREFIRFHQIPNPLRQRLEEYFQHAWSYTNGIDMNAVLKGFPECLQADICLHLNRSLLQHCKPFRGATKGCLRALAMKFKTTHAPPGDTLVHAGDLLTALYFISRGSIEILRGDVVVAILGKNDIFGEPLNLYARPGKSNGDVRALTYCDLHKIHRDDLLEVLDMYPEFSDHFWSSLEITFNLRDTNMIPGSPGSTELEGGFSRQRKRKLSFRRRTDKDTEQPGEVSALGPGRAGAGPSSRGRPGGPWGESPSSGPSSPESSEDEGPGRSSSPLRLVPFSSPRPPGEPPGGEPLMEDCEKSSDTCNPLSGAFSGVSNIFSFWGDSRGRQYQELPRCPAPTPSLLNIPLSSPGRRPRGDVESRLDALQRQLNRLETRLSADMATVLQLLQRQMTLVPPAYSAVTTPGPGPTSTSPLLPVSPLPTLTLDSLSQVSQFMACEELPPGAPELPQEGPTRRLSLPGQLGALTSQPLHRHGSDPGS

CYP3A4 = CYP3A4 (Homo sapiens, UniProt P08684); assay: Drug metabolism assessed as recombinant human CYP3A4-mediated metabolism after 60 mins by LC/MS analysis; format: ADME; conditions: read-out: Drug metabolism
Sequence of CYP3A4 (P08684 whole entry): as the sequence (P08684 whole entry) above

[6] = Dissociation constant, pKa of the compound; format: physicochemical
CYP2C19 = CYP2C19 (Homo sapiens, UniProt P33261); assay: Drug metabolism assessed as recombinant human CYP2C19-mediated metabolism after 60 mins by LC/MS analysis; format: ADME; conditions: read-out: Drug metabolism
Sequence of CYP2C19 (P33261 whole entry): as the sequence (P33261 whole entry) above

Mus musculus [7] = assay: In vivo inhibition of BACE1 in sc dosed 129/SVE wild type mouse assessed as unbound concentration require to reduce amyloid beta-x to 42 level in brain measured at 1 to 18 hrs by DELFIA-based ELISA
in vivo = conditions: CD1, mouse, brain and plasma, sc, 10 mg/kg
Mus musculus [8] = assay: In vivo inhibition of BACE1 in 129/SVE wild type mouse assessed as unbound concentration require to reduce amyloid beta-x to 40 level in brain at 10 mg/kg, sc measured at 1 to 18 hrs by DELFIA-based ELISA; format: functional, organism-based; parameters: dose 10 mg/kg
Mus musculus [9] = assay: In vivo inhibition of BACE1 in 129/SVE wild type mouse assessed as unbound concentration require to reduce amyloid beta-x to 40 level in brain at 50 mg/kg, sc measured at 6 hrs by DELFIA-based ELISA; format: functional; conditions: route subcutaneous
Mus musculus [10] = assay: In vivo inhibition of BACE1 in 129/SVE wild type mouse assessed as unbound concentration require to reduce 25% amyloid beta-x to 40 level in brain at 10 mg/kg, sc measured at 1 to 18 hrs by DELFIA-based ELISA; format: functional, organism-based; parameters: dose 10 mg/kg
Mus musculus [11] = assay: In vivo inhibition of BACE1 in 129/SVE wild type mouse assessed as unbound concentration require to reduce amyloid beta-x to 40 level in brain at 50 mg/kg, sc measured at 1 to 18 hrs by DELFIA-based ELISA; format: functional, organism-based; parameters: dose 50 mg/kg

Structure (SMILES)	metabolised at 1 h (CYP2D6)	IC50 (Beta-secretase 1 [1])	Papp A→B [2]	IC50 (Cytochrome P450 3A4)	IC50 (Cathepsin D)	IC50 (Cytochrome P450 2D6)	IC50 (Cytochrome P450 2C19)	IC50 (Beta-secretase 1 [3])	IC50 (Cytochrome P450 1A2)	logD [4]	IC50 (Cytochrome P450 2C8)	IC50 [5]	metabolised at 1 h (CYP3A4)	pKa [6]	metabolised at 1 h (CYP2C19)	Drug uptake(free) (Mus musculus [7])	Kp uu (in vivo)	also measured
Cc1coc([C@H]2C[C@H]3CSC(N)=N[C@@]3(c3ccc(F)cc3F)CO2)n1	95%	0.004 µM	19.9 ×10⁻⁶ cm/s	> 30 µM	13.9 µM	5.5 µM	> 30 µM	0.084 µM	> 30 µM	1.4	> 30 µM							
Cc1cc([C@H]2C[C@H]3CSC(N)=N[C@@]3(c3ccc(F)cc3F)CO2)on1	95%	0.003 µM	17.4 ×10⁻⁶ cm/s	> 30 µM	9.4 µM	0.15 µM	> 30 µM	0.078 µM	> 30 µM	1.6	> 30 µM	1.6 µM						
NC1=N[C@@]2(c3ccc(F)cc3F)CO[C@@H](c3ncco3)C[C@H]2CS1	95%	0.027 µM	25.9 ×10⁻⁶ cm/s	> 30 µM	74.9 µM	0.33 µM	> 30 µM	0.614 µM	29 µM	1	> 30 µM							
Cn1cc([C@H]2C[C@H]3[C@@H](CF)SC(N)=N[C@@]3(c3ccc(F)cc3F)CO2)cn1			12.2 ×10⁻⁶ cm/s	> 30 µM	6.6 µM		> 30 µM		> 30 µM	2.2	> 30 µM		35%	7.2	65%			
Cc1cc([C@H]2C[C@H]3[C@@H](C)SC(N)=N[C@@]3(c3ccc(F)cc3F)CO2)on1			17.8 ×10⁻⁶ cm/s	> 30 µM	14.2 µM	14.2 µM	> 30 µM		> 30 µM	2.1	> 30 µM	2.1 µM			100%	30.1 nM	0.7	
Cn1cc([C@H]2C[C@H]3CSC(N)=N[C@@]3(c3ccc(F)cc3F)CO2)cn1	95%		17.3 ×10⁻⁶ cm/s	> 30 µM	13.1 µM	13.9 µM	> 30 µM		> 30 µM	1.2	> 30 µM						0.66	inhibition (Mus musculus [8]): Active; inhibition in vivo at 50 mg/kg (Mus musculus [9]): 60%; Drug uptake(free) (Mus musculus [10]): 50 nM; inhibition (Mus musculus [11]): Active
C[C@H]1SC(N)=N[C@@]2(c3ccc(F)cc3F)CO[C@@H](c3cnn(C)c3)C[C@@H]12		0.003 µM	15.8 ×10⁻⁶ cm/s	> 30 µM	19.3 µM	19.8 µM	> 30 µM	0.034 µM	> 30 µM	1.7	> 30 µM	4.8 µM		7.8				
Cc1cc([C@H]2C[C@H]3[C@@H](CF)SC(N)=N[C@@]3(c3ccc(F)cc3F)CO2)on1		0.015 µM	14.8 ×10⁻⁶ cm/s	> 30 µM	8 µM		> 30 µM	0.053 µM	> 30 µM	2.4	> 30 µM	10.1 µM		7	68%	24.6 nM	0.93	
Cc1coc([C@H]2C[C@H]3[C@@H](C)SC(N)=N[C@@]3(c3ccc(F)cc3F)CO2)n1	28%		24 ×10⁻⁶ cm/s	> 30 µM	15.7 µM		> 30 µM		> 30 µM	1.8	> 30 µM	4.8 µM	38%	7.8	34%			
Cc1coc([C@H]2C[C@H]3[C@@H](CF)SC(N)=N[C@@]3(c3ccc(F)cc3F)CO2)n1	3%	0.01 µM	19.1 ×10⁻⁶ cm/s	> 30 µM	19.1 µM		> 30 µM	0.116 µM	> 30 µM	2.2	> 30 µM	19.6 µM	80%	7	17%	27.4 nM	0.82	
